These results are taken from patent publication US20100056468A1, “Pyrimidine Derivatives As Anticancer Agents” (University Health Network, priority 2007, published 2010).

Where only a bound is given, the exact number is not on record here.

One assay has as its system MCF7. Put plainly: In vitro cell proliferation assay (WST.1, Table 5). The assay is classed as cell-based. As to conditions: Homo sapiens, 72 h; MCF7, day 3. As to the method:
(§1) These cell lines were grown in Iscove's MDM supplemented with 5% fetal calf serum (FCS), 50 μM 2-mercaptoethanol, 100 μg/ml penicillin, and 100 μg/ml streptomycin. Cell lines growing in suspension were maintained at 0.5-1.5×10^6 cell/ml, while adherent cell lines were maintained at subconfluent densities.
(§2) Cell lines were seeded in triplicate at 10^4 cells/100 μl in 96-well plates. Peripheral blood mononuclear cells were seeded in triplicate at 10^5 cells/100 μl in 96-well plate. Different test compounds were added immediately at final concentrations ranging between 0 to 100 μM. All compounds were dissolved in sterile deionized water, so water was added to the control wells. On day 3, WST.1 assay (Roche) was used to measure the effect of different test compounds on cell growth. WST.1 assay is a calorimetric assay for the nonradioactive quantification of cell proliferation, cell viability, and cytotoxicity. The assay was performed according to manufacturer's instructions (Roche). It relies on the cleavage by cellular enzymes of WST.1 (water soluble tetrazolium salt: 4-[3-(4-iodophenyl)-2-(4-nitrophenyl)-2H-5-tetrazolio]-1,3-benzene disulfonate) to formazan. The amount of formazan dye formed correlates to the number of metabolically active cells in the culture and is readily read in an ELISA microplate reader using an absorbance wavelength of 440 nm. These OD values are plotted against concentrations of different compounds and IC50 is determined for each compound.
`Cc1cc(=O)[nH]c(=O)n1C1CC(O)C(CO)O1` (stereo not drawn): the IC50 is more than 50 µM.

For `O=C1C/C(=N\O)N(C2OC(CO)C(O)C2O)C(=O)N1` (stereo not drawn), the half-maximal inhibitory concentration (IC50) was more than 50 µM.

The compound `O=Cc1cc(=O)[nH]c(=O)n1C1OC(CO)C(O)C1O` (stereo not drawn) came in with a half-inhibitory concentration (IC50) of more than 50 µM.

A further assay deals with MDA468. Put plainly: In vitro cell proliferation assay (WST.1, Table 5). The assay is classed as cell-based. As to conditions: Homo sapiens, 72 h; MDA468, day 3. How it is done:
as §1, §2
Compound `Cc1cc(=O)[nH]c(=O)n1C1CC(O)C(CO)O1` (stereo not drawn) displayed an IC50 of more than 50 µM.

In the case of `O=C1C/C(=N\O)N(C2OC(CO)C(O)C2O)C(=O)N1` (stereo not drawn), the IC50 is more than 50 µM.

In turn, `O=Cc1cc(=O)[nH]c(=O)n1C1OC(CO)C(O)C1O` (stereo not drawn) registered an IC50 of more than 50 µM.

In the next assay the test system is OCI-AML-1. Put plainly: In vitro cell proliferation assay (WST.1, Table 5). The assay is classed as cell-based. The settings on record: Homo sapiens, 72 h; OCI-AML-1, day 3. As to the method: as §1, §2
On to `Cc1cc(=O)[nH]c(=O)n1C1CC(O)C(CO)O1` (stereo not drawn), for which the IC50 is more than 50 µM.

Turning to `O=C1C/C(=N\O)N(C2OC(CO)C(O)C2O)C(=O)N1` (stereo not drawn), the IC50 is more than 50 µM.

As for `O=Cc1cc(=O)[nH]c(=O)n1C1OC(CO)C(O)C1O` (stereo not drawn), the half-inhibitory concentration (IC50) was more than 50 µM.

`O=c1[nH]cc(F)c(=O)[nH]1` [5-Fluoro-uracil, reference compound] gave an IC50 of 1 µM.

In the next assay the test system is OCI-AML-2. Put plainly: In vitro cell proliferation assay (WST.1, Table 5). It counts as cell-based. As to conditions: Homo sapiens, OCI-AML2, 72 h; OCI-AML-2, day 3. As to the method: as §1, §2
The compound `Cc1cc(=O)[nH]c(=O)n1C1CC(O)C(CO)O1` (stereo not drawn) yielded an IC50 of more than 50 µM.

The compound `O=C1C/C(=N\O)N(C2OC(CO)C(O)C2O)C(=O)N1` (stereo not drawn) yielded an IC50 of more than 50 µM.

`O=Cc1cc(=O)[nH]c(=O)n1C1OC(CO)C(O)C1O` (stereo not drawn) came in with an IC50 of more than 50 µM.

Take `O=c1[nH]cc(F)c(=O)[nH]1` [5-Fluoro-uracil, reference compound]: the half-inhibitory concentration (IC50) amounted to 1.6 µM.

For another assay, the system named is OCI-Ly-7. Put plainly: In vitro cell proliferation assay (WST.1, Table 5). The assay is classed as cell-based. The settings on record: Homo sapiens, OCI-Ly7, 72 h; OCI-Ly-7, day 3. As to the method: as §1, §2
As to `Cc1cc(=O)[nH]c(=O)n1C1CC(O)C(CO)O1` (stereo not drawn), the concentration for half-maximal inhibition (IC50) was more than 50 µM.

Compound `O=C1C/C(=N\O)N(C2OC(CO)C(O)C2O)C(=O)N1` (stereo not drawn) yielded an IC50 of more than 50 µM.

In turn, `O=Cc1cc(=O)[nH]c(=O)n1C1OC(CO)C(O)C1O` (stereo not drawn) yielded an IC50 of more than 50 µM.

Another assay concerns OCI-My-2. Put plainly: In vitro cell proliferation assay (WST.1, Table 5). It counts as cell-based. The settings on record: Homo sapiens, 72 h; OCI-My-2, day 3. How it is done: as §1, §2
`Cc1cc(=O)[nH]c(=O)n1C1CC(O)C(CO)O1` (stereo not drawn) gave an IC50 of more than 50 µM.

The compound `O=C1C/C(=N\O)N(C2OC(CO)C(O)C2O)C(=O)N1` (stereo not drawn) returned a concentration for half-maximal inhibition (IC50) of more than 50 µM.

`O=Cc1cc(=O)[nH]c(=O)n1C1OC(CO)C(O)C1O` (stereo not drawn): the half-inhibitory concentration (IC50) is more than 50 µM.

The next assay has as its system SKW3. Put plainly: In vitro cell proliferation assay (WST.1, Table 5). The assay is classed as cell-based. The settings on record: Homo sapiens, 72 h; SKW3, day 3. As to the method: as §1, §2
In turn, `Cc1cc(=O)[nH]c(=O)n1C1CC(O)C(CO)O1` (stereo not drawn) gave an IC50 of more than 50 µM.

Consider `O=C1C/C(=N\O)N(C2OC(CO)C(O)C2O)C(=O)N1` (stereo not drawn), for which the IC50 was more than 50 µM.

Compound `O=Cc1cc(=O)[nH]c(=O)n1C1OC(CO)C(O)C1O` (stereo not drawn) gave an IC50 of more than 50 µM.

With `O=c1[nH]cc(F)c(=O)[nH]1` [5-Fluoro-uracil, reference compound], half-maximal inhibition (IC50) was put at 2.1 µM.

A further assay concerns LOX. Put plainly: In vitro cell proliferation assay (WST.1, Table 5). As to conditions: Homo sapiens, 72 h, day 3. It counts as cell-based, human. How it is done:
as §1, §2
`Cc1cc(=O)[nH]c(=O)n1C1CC(O)C(CO)O1` (stereo not drawn) gave a half-inhibitory concentration (IC50) of more than 50 µM.

Compound `O=C1C/C(=N\O)N(C2OC(CO)C(O)C2O)C(=O)N1` (stereo not drawn) yielded a 50% inhibitory concentration (IC50) of more than 50 µM.

`O=Cc1cc(=O)[nH]c(=O)n1C1OC(CO)C(O)C1O` (stereo not drawn) had an IC50 of more than 50 µM.

In general, IC50 refers to the concentration that gives 50% inhibition.
